{"source": "ChEMBL document CHEMBL1201862", "about": "“PubChem BioAssay data set” (2004)", "key": {"[1]": {"biological_target": "Aryl hydrocarbon receptor (Homo sapiens, UniProt P35869)", "sequence (P35869 whole entry)": "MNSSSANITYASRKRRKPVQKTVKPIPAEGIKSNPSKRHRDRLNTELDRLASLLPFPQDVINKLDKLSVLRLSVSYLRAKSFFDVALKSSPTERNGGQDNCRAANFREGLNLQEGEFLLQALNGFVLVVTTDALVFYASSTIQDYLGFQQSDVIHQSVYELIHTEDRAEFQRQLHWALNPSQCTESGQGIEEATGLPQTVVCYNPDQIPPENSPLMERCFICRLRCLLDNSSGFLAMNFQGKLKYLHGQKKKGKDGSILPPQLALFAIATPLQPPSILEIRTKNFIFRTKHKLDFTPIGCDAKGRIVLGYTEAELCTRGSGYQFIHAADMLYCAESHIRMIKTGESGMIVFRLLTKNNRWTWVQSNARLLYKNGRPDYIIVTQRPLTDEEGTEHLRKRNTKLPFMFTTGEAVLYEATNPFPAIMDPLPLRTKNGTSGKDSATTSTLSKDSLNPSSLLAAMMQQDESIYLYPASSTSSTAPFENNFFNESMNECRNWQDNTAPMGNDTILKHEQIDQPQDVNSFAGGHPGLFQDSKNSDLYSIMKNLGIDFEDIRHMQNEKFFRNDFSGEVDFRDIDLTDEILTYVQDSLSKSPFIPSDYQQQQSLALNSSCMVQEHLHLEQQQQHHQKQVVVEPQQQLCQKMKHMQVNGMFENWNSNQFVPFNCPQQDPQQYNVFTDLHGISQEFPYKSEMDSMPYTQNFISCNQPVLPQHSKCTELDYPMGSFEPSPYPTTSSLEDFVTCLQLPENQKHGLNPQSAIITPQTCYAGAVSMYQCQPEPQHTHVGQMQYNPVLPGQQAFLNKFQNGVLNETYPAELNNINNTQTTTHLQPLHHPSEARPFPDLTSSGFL", "settings": "Potency"}, "[2]": {"biological_target": "T1, Mitochondrial peptide methionine sulfoxide reductase (Bos taurus, UniProt P54149)", "T1 sequence (P54149 whole entry)": "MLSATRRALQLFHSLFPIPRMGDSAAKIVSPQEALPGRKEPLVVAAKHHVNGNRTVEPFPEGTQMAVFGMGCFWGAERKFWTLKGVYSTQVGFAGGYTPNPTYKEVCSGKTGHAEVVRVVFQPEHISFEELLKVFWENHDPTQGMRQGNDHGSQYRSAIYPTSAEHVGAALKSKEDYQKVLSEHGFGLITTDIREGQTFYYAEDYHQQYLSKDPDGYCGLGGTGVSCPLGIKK", "type": "functional"}, "[3]": {"biological_target": "T1, Mitochondrial peptide methionine sulfoxide reductase", "test": "Absorbance-based biochemical high throughput dose response assay for activators of Methionine sulfoxide reductase A (MsrA).", "type": "functional"}, "[4]": {"test": "miR-122 activators in hepatoma reporter cells, dose response, cell-based, Huh7 psiCHECK-miR122, Renilla luciferase, cherry-picked (AID 651956);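 further: huh7 hepatoma cells stably carrying a psiCHECK-2 miR-122 sensor plasmid; renilla luciferase signal reporting endogenous miR-122 activity after 48 h compound exposure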", "type": "functional"}, "[5]": {"test": "HEK293 cell viability, dose response, counter-screen for EBV LMP1 inhibitor project, dry powder, set 2 (AID 624374)", "type": "functional"}, "[6]": {"biological_target": "Paired box protein Pax-8 (Homo sapiens, UniProt Q06710)", "sequence (Q06710 whole entry)": "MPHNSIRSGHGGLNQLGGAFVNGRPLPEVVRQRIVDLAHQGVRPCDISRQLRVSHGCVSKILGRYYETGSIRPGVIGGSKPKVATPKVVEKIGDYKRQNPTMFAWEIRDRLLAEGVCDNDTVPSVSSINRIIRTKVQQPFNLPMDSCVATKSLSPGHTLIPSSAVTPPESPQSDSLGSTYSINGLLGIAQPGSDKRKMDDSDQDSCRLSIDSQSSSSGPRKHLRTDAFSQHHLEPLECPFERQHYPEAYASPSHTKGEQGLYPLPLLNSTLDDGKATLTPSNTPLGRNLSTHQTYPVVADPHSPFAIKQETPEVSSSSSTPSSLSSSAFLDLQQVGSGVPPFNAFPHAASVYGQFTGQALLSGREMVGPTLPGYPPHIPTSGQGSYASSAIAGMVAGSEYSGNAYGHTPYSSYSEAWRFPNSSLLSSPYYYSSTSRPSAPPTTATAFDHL", "test": "inhibitors of PAX8-driven TPO luciferase reporter, dose response, RMG-I cells, cherry-pick (AID 687027);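 further: luciferase reporter driven by Pax8 target thyroperoxidase promoter measured by SteadyGlo luminescence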", "type": "functional, cell-based"}, "[7]": {"test": "inhibitors of TNFa-stimulated NF-kB luciferase reporter, dose response, selectivity assay for EBV LMP1 NF-kB inhibitor project, HEK293 LMP1 reporter cells, dry powder, set 2 (AID 624369)", "type": "functional"}, "[8]": {"test": "IGROV1 ovarian cancer cell cytotoxicity, dose response, PAX8 inhibitor project, plate reader, dry powder samples (AID 743043)", "type": "functional, cell-based", "settings": "IGROV-1"}, "[9]": {"test": "lymphoblastoid cell cytotoxicity, dose response, cytotoxicity control, plate reader, dry powder, set 2 (AID 624367)", "type": "functional"}, "[10]": {"biological_target": "Arf-GAP with SH3 domain, ANK repeat and PH domain-containing protein 1 (Homo sapiens, UniProt Q9ULH1)", "sequence (Q9ULH1 whole entry, the tested form may be a part)": "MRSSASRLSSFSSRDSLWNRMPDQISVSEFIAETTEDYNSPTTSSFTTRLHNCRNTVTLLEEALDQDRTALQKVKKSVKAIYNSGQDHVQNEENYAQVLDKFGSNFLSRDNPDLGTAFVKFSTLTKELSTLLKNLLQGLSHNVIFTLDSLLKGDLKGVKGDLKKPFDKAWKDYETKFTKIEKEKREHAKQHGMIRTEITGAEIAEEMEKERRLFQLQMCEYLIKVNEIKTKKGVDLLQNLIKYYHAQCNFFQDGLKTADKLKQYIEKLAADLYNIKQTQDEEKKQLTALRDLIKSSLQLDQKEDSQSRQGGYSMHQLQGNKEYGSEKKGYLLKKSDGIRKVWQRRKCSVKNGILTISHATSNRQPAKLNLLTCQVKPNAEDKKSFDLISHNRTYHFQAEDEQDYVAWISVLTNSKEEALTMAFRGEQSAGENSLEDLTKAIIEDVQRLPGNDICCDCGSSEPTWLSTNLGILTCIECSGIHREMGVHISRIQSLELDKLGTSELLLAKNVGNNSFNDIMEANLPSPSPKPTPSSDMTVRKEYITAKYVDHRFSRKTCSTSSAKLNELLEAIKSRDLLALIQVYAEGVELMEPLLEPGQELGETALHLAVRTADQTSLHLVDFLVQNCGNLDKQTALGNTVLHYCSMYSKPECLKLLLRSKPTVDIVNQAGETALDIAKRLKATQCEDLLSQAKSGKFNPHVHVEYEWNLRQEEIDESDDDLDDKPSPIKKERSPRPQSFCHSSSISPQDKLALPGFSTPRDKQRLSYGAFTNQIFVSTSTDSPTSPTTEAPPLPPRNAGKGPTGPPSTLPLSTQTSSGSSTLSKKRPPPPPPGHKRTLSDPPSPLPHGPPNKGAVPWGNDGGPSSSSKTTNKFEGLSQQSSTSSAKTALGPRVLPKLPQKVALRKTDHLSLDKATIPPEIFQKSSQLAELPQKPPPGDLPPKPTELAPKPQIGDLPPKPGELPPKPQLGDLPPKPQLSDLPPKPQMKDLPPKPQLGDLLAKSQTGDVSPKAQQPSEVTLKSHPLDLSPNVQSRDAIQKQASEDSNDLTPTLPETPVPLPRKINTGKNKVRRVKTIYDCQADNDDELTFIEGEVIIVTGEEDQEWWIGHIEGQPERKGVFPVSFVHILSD", "type": "functional"}, "[11]": {"biological_target": "T2, Small ubiquitin-related modifier 1 (Homo sapiens, UniProt P63165)", "T2 sequence (P63165 whole entry)": "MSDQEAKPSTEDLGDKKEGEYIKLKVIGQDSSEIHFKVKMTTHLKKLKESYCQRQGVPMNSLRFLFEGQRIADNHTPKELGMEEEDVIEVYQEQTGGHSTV", "test": "inhibitors of SUMO1 peptide binding, dose response, biochemical, fluorescence polarization, uHTS hits (AID 624382)", "type": "functional", "settings": "read-out: IC50_Mean"}, "[12]": {"biological_target": "T2, Small ubiquitin-related modifier 1", "test": "inhibitors of SUMO1 partner interactions, dose response, biochemical, FRET (AID 624383)", "type": "functional", "settings": "read-out: IC50_Mean"}, "[13]": {"biological_target": "Hepatocyte nuclear factor 4-alpha (Homo sapiens, UniProt P41235)", "sequence (P41235 whole entry)": "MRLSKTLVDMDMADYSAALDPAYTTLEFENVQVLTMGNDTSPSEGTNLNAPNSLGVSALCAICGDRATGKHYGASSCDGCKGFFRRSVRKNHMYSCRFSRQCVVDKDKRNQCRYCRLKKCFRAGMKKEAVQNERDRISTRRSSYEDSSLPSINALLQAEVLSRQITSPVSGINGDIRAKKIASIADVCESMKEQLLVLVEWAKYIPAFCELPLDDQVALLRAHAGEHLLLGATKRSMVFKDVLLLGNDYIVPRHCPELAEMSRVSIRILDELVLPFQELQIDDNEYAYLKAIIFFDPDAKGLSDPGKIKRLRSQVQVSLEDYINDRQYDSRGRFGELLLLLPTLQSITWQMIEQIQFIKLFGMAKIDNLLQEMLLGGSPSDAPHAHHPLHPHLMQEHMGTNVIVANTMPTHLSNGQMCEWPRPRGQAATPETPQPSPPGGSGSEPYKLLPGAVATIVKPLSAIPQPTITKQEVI", "type": "functional, cell-based"}}, "note": "Where a name gives a salt, the structure may show the parent alone. Calls of active or inactive are those of the source."}
{"compound": "O=C(O)C1(C(=O)Nc2ccc(Cl)cc2Cl)CC1", "values": [{"measurement": "AC50", "setting": "[1]", "result": "50.1 µM (inconclusive)"}]}
{"compound": "Sc1nnc(C2CCCCC2)n1/N=C/c1ccccc1Br", "values": [{"measurement": "IC50", "setting": "[2]", "result": "155 µM (inactive)"}]}
{"compound": "CO/N=C/c1ccc(N2CCCC2)c([N+](=O)[O-])c1", "values": [{"measurement": "EC50", "setting": "[3]", "result": "> 104 µM (inactive)"}]}
{"compound": "CNC(=O)C[C@@H]1CC[C@@H]2[C@@H](COc3ccc(NC(=O)Nc4ccc(F)c(F)c4)cc3C(=O)N2C)O1", "values": [{"measurement": "AC50", "setting": "[4]", "result": "4.95 µM (active)"}]}
{"compound": "O=C(C[C@H]1CC[C@H]2[C@@H](COC[C@@H](O)CN2Cc2ccc3c(c2)OCO3)O1)Nc1ccc(-c2ccccc2)cc1", "values": [{"measurement": "AbsAC35", "setting": "[5]", "result": 148.97, "unit": "µM"}, {"measurement": "AC50", "setting": "[6]", "result": "5.67 µM (active)"}, {"measurement": "AbsAC35", "setting": "[7]", "result": 57.32, "unit": "µM"}, {"measurement": "AC50", "setting": "[8]", "result": "63.5 µM (active)"}, {"measurement": "AbsAC35", "setting": "[9]", "result": 77.89, "unit": "µM"}]}
{"compound": "COc1cc(/C=N/NC(=O)c2ccc(O)cc2)ccc1OCC(=O)Nc1cccc([N+](=O)[O-])c1", "values": [{"measurement": "IC50", "setting": "[10]", "result": "25.3 µM (inactive)"}, {"measurement": "IC50", "setting": "[11]", "result": "> 66.6 µM (inactive)"}, {"measurement": "IC50", "setting": "[12]", "result": "3.86 µM (active)"}]}
{"compound": "CCOc1cc(N)c(Cl)cc1C(=O)NCC1CN(Cc2ccc(F)cc2)CCO1", "note": "(stereo not drawn) [MOSAPRIDE CITRATE]", "values": [{"measurement": "IC50", "setting": "[13]", "result": "12.7 µM (inactive)"}]}
